Source: patent EP4122499A1, “FIBROBLAST ACTIVATION PROTEIN INHIBITORS AND USE THEREOF” (3B Pharmaceuticals GmbH, priority 2021, dated 2023)

Assays:
[1] = molecular target: T1, FAP-expressing human WI-38 fibroblasts (Homo sapiens, UniProt Q12884); test: Competitive FACS binding assay (displacement of Cy5-labeled FAP inhibitor 3BP-2935); settings: 3 nM Cy5-labeled 3BP-2935, 4°C, 1 hour
T1 construct: FAP-expressing human WI-38 fibroblasts (ECACC 90020107) were cultured in EMEM; host or cells: WI-38 human fibroblasts
T1 sequence (Q12884 1-760): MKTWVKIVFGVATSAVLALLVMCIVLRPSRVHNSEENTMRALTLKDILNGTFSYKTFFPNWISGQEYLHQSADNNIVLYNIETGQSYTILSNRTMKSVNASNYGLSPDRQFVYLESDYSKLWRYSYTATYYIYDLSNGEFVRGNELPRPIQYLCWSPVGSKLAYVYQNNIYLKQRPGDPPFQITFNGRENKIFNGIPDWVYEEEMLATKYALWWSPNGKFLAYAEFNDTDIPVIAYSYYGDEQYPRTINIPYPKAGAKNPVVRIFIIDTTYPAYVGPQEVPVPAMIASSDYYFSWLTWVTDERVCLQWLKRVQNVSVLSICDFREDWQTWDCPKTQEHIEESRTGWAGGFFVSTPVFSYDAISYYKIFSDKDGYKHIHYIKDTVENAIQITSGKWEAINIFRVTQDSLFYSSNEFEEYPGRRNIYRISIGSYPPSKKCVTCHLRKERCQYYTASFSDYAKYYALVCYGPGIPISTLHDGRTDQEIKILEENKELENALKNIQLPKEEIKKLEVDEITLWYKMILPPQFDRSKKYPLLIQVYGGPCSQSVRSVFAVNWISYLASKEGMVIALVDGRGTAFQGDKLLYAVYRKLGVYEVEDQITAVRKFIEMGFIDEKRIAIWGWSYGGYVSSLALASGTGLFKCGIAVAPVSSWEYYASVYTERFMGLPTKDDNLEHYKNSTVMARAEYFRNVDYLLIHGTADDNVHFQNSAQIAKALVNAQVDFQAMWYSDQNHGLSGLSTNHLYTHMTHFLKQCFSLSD

[2] = molecular target: T2, Human recombinant FAP (Homo sapiens, UniProt Q12884); test: FRET-based FAP protease activity assay (human); assay type: biochemical; design: purchased R&D systems 3715-SE; settings: FRET-peptide substrate, 37°C; for IC50: read-out: pIC50 (Activity) (converted)
T2 sequence (Q12884 1-760): T1 sequence (Q12884 1-760)
Procedure: In order to determine the inhibitory activity a FRET-based FAP protease activity assay was established.
25 µL of a 30 µM substrate solution, diluted in assay buffer, was added. […] Four parameter logistic (4PL) curve fitting and pIC50 calculations were performed using ActivityBase software (IDBS).

[3] = molecular target: T3, recombinant human PREP (Homo sapiens, UniProt P48147); test: PREP protease activity assay; assay type: biochemical; settings: 50 µM Z-GP-AMC substrate
T3 construct: purchased R&D systems 4308-SE
T3 sequence (P48147 1-710): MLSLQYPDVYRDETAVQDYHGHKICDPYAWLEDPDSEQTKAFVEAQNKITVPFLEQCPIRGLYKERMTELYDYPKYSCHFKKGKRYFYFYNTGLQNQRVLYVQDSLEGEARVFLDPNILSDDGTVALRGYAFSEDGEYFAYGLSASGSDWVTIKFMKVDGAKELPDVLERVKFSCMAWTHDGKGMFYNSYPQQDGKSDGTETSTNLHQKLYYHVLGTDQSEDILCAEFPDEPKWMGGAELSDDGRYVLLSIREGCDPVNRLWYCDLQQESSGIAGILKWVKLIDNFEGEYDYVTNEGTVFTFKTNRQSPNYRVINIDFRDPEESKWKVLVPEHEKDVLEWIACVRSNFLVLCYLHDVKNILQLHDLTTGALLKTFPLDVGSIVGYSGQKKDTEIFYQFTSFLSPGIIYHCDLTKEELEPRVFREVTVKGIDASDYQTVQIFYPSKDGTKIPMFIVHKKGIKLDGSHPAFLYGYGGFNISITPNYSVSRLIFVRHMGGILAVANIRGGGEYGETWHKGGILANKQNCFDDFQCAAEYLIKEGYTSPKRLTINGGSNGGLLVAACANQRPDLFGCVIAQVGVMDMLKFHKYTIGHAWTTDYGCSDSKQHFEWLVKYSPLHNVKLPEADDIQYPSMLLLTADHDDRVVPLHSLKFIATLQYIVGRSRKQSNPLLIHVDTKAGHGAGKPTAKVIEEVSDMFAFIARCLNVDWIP
Procedure: (§1) The PREP activity assay was performed using the FACS buffer (PBS including 1% FBS, Sigma-Aldrich, Cat# D8537). […] The DPP4 activity assay was performed in DPP assay buffer (25 mM Tris, pH 8.0).
(§2) Four parameter logistic (4PL) curve fitting and pIC50 calculations were performed using ActivityBase software.

[4] = molecular target: T4, Recombinant human DPP4 (Homo sapiens, UniProt P27487); test: DPP4 protease activity assay; assay type: biochemical; settings: 20 µM GP-AMC substrate; for IC50: read-out: pIC50 (DPP4) (converted)
T4 construct: purchased R&D systems 9168-SE
T4 sequence (P27487 whole entry): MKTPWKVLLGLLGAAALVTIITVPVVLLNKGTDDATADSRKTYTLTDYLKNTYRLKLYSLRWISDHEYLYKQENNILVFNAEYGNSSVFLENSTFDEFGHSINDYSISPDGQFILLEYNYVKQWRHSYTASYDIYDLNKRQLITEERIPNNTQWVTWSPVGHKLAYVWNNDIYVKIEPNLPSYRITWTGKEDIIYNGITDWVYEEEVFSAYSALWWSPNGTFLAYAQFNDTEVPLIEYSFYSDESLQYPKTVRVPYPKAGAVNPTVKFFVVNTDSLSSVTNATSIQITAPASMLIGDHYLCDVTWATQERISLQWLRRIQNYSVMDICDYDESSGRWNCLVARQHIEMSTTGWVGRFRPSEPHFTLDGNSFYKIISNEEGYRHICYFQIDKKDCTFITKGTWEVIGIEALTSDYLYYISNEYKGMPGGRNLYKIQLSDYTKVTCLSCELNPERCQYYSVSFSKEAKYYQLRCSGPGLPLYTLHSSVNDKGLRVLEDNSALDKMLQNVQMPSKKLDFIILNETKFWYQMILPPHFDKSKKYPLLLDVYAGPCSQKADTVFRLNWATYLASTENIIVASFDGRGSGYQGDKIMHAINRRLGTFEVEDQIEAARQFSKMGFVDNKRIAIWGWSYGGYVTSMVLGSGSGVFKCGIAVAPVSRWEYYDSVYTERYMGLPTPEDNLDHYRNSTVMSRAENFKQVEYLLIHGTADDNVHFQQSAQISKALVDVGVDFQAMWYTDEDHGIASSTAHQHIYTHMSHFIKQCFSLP
Procedure: as §1, §2

IC50 [1] | IC50 [2] | IC50 [3] | IC50 [4] | pIC50 (FACS) [1] | pIC50 (Activity) [2] | pIC50 (PREP) [3] | pIC50 (DPP4) [4] | SMILES
15.8 nM | 3.98 nM | 1.26 nM | > 1000 nM | – | – | – | – | CC(C)(C)c1nnc(C(=O)[C@@H]2CCCN2C(=O)CNC(=O)c2ccnc3ccccc23)o1
– | – | – | – | 8.6 | 8.8 | 8.2 | <6 | O=C(O)CN1CCN(CC(=O)O)CCN(CC(=O)NCCCNC(=O)c2ccc(-c3ccc4nccc(C(=O)NCC(=O)N5CCC[C@H]5C(=O)c5nc6ccccc6o5)c4c3)cc2)CCN(CC(=O)O)CC1
6.31 nM | 1.58 nM | 1 nM | > 1000 nM | – | – | – | – | O=C(NCC(=O)N1CCC[C@H]1C(=O)c1nc2ccccc2o1)c1ccnc2ccccc12
6.31 nM | 2 nM | > 1000 nM | > 1000 nM | – | – | – | – | CS(=O)(=O)c1cccc(-c2ccc3c(C(=O)NCC(=O)N4CCC[C@H]4C#N)ccnc3c2)c1
